Assay results: article PMC8279406 (Journal of Medicinal Chemistry, 2021)

Columns and labels:
[1] = system: T1, integrin β8; assay: Integrin internalization assay, surface integrin β8 by flow cytometry; type: cell-based, human; details: J cells with nectin1, αvβ6 and αvβ8, 700 μM, 1 h at 37 °C
T1 construct: expressed in transfected cells; host or cells: J cells (derivatives of BHK-TK2 hamster cells)
Source text: Therefore, another mechanism might be responsible for the activity of 6 on J cells expressing αvβ8 integrin alone as well as the higher activity of 6 than that of 1 in cells that express both αvβ6 and αvβ8.[38] Thus, we hypothesized that 6 can prevent HSV-1 entry into J cells expressing nectin1 and the αvβ8 integrin alone by inducing internalization of the integrin itself. To validate our hypothesis, J cells were transfected with nectin1 and the two integrins αvβ6 and αvβ8 in the above-described manner. Then, 48 h after transfection, the cells were incubated for 60 min at 37 °C with 1 or 6. The surface expression of integrin β6 and β8, in the presence or the absence of peptides, was then evaluated by flow cytometry using FAB4155A (mAbβ6) and FAB4775A (mAbβ8) monoclonal antibodies that recognize other integrin regions than the RGD-binding domain.
Figure 5 Integrin internalization assay. J cells were transfected with a low amount (75 ng of DNA/24 well) of nectin1 plus αvβ6 integrin (300 ng of DNA/24 well) and αvβ8 integrin (300 ng of DNA/24 well). Then, 48 h after transfection, the cells were exposed to 700 μM peptides for 1 h at 37 °C. […] Integrin and nectin1 surface expression levels were quantified as flow cytometry expression of the APC mean fluorescence intensity (MFI) of gated cells. […]

[2] = target: T2, human αvβ6 integrin (Homo sapiens, UniProt P06756+P18564); assay: LAP(TGF-β1)-αvβ6 competitive solid-phase ELISA binding assay; details: immobilized LAP, soluble integrin
T2 construct: using immobilized ECM protein and soluble integrin; purchased R&D Systems (Biotechne brand) 3817-AV
Protocol: (§1) The affinity and selectivity of the integrin peptide ligands were ascertained according to a modified method previously reported by some of us.[33],[47] The binding was determined in a competitive solid-phase binding assay using extracellular matrix proteins, soluble integrins, and pertinent integrin-specific antibodies in an enzyme-linked immunosorbent assay (ELISA).
A flat-bottom 96-well ELISA plate was coated overnight at 4 °C with 100 μL/well of 0.4 μg/mL LAP previously diluted in carbonate buffer (15 mM Na2CO3, 35 mM NaHCO3, pH 9.6). Afterward, each well was then washed three times with 200 μL of PBS-T buffer (137 mM NaCl, 2.7 mM KCl, 10 mM Na2HPO4, 2 mM KH2PO4, 0.01% Tween 20, pH 7.4) and blocked for 1 h at room temperature with 150 μL/well TSB buffer (20 mM Tris–HCl, 150 mM NaCl, 1 mM CaCl2, 1 mM MgCl2, 1 mM MnCl2, pH 7.5, 1% BSA). Then, each well was washed three times with 200 μL of PBS-T.
Equal volumes (50 μL) of the internal standard (or test compounds) were mixed with 0.5 μg/mL human integrin αvβ6 (50 μL) giving a final dilution series in TSB buffer of 0.00064–10 μM for the inhibitors and 0.25 μg/mL for integrin αvβ6. These solutions (100 μL/well) were added to the flat-bottom ELISA plate and incubated for 1 h at room temperature. The solutions were discarded from the wells, and the plate was washed three times with PBS-T buffer (3 × 200 μL). […] The solutions were discarded from the wells, and the plate was washed three times with PBS-T (3 × 200 μL). The binding assay was developed by adding 50 μL/well of the 3,3′,5,5′-tetramethylbenzidine (TMB) liquid substrate system and incubating for 1 min at room temperature. The reaction was stopped by adding 50 μL/well of 3 M H2SO4. The peroxidase product formation was detected by measuring the absorbance at […] using a plate reader (Tecan SpectraFLUOR plus, Männedorf, Switzerland). Each compound concentration was tested in duplicate, and the resulting inhibition curves were analyzed using OriginPro 7.5G software; the inflection point describes the IC50 value. Each plate contained a linear peptide ([…]) as the internal standard.[63]

[3] = target: T3, human α5β1 integrin (Homo sapiens, UniProt P05556+P08648); assay: Fibronectin-α5β1 competitive solid-phase ELISA binding assay; details: immobilized fibronectin, soluble integrin
T3 construct: purchased R&D Systems (Biotechne brand) 3230-A5
Protocol: as §1
The experimental procedure was as described for the αvβ6 assay, except for the following modifications. […] Visualization and analysis were performed as described above.

[4] = target: T4, human αvβ3-integrin (Homo sapiens, UniProt P05106+P06756); assay: Vitronectin-αvβ3 competitive solid-phase ELISA binding assay
T4 construct: purchased R&D Systems (Biotechne brand) 3050-AV
Protocol: as §1
The experimental procedure was as described for the αvβ6 assay, except for the following modifications. The plates were coated with 100 μL/well of 1.0 μg/mL vitronectin in carbonate buffer, washed, and blocked as described above. […] As a primary antibody, 100 μL/well of 2.0 μg/mL primary antibody (mouse antihuman CD51/61) was used. The secondary antibody used was the same as that used for the integrin αvβ6 assay. Visualization and analysis were performed as described above.

With `CN1C(=O)[C@H](C2CCCCC2)NC(=O)[C@H](CC(=O)O)NC(=O)CNC(=O)[C@H](CCCNC(=N)N)NC(=O)CC[C@H]1C(N)=O` [compound 6, [Arg-Gly-Asp-Chg-(NMe)Glu]-CONH2] the “integrin β8 surface level (in words)” value [1] was “reduced”, the IC50 [2] was 1.6 ± 0.1 nM and the IC50 [3] was 112 ± 26 nM. The “binding affinity for αvβ3 (in words)” value [4] was “no significant binding affinity” and the IC50 ([4]; competitive ELISA, immobilized vitronectin, soluble integrin) was 1200 ± 121 nM.
